Data published in patent EP0904260B1, “INHIBITION OF MATRIX METALLOPROTEASES BY 2-(OMEGA-AROYLALKYL)-4-BIARYL-OXOBUTYRIC ACIDS” (Bayer Corporation, priority 1996, dated 1997).

Legend:
MMP-9 = target: T1, MMP-9 (Homo sapiens, UniProt P14780); type: biochemical; settings: 6 µM P218 substrate, approximately 0.5 to 0.8 nM MMP, 25 min. at 37°C, pH 6.5
T1 construct: made in house
Text: (§1) The P218 quenched fluorescence assay (Microfluorometric Profiling Assay) is a modification of that originally described by Knight, et al., FEBS Lett. 296, 263, 1992 for a related substance and a variety of matrix metalloproteinases (MMPs) in cuvettes. The assay was run with each invention compound and the three MMPs. MMP-3, MMP-9 and MMP-2, analyzed in parallel. adapted as follows for a 96-well microtiter plate and a Hamilton AT® workstation.
(§2) P218 Fluorogenic Substrate: P218 is a synthetic substrate containing a 4-acetyl-7-methoxycoumarin ( MCA) group in the N-terminal position and a 3-[2,4-dinitrophenyl]-L-2,3-diaminopropionyl (DPA) group internally. This is a modification of a peptide reported by Knight (1992) that was used as a substrate for matrix metalloptoteinases. Once the P218 peptide is cleaved (putative clip site at the Ala-Leu bond), the fluorescence of the MCA group can be detected on a fluorometer with excitation at 328 nm and emission at 393 nm. P218 is currently being produced by BACHEM Bioscience, Inc.exclusively for the Bayer Corporation. P218 has the structure: [formula]
Recombinant Human Pro-MMP-9: Human pro-gelatinase B (pro-MMP-9) derived from U937 cDNA as described by Wilhelm, et al. J. Biol. Chem. 264, 17213, 1989 was expressed as the full-length form using a baculovirus protein expression system. The pro-enzyme was purified using methods previously described by Hibbs, et al. J. Biol. Chem. 260, 2493, 1984.
Activation of Pro-MMP-9: […] 20 µg/mL in 50 mM Tris at pH 7.4, 10mM […], 150 mM NaCl, and 0.005% Brij-35 (MMP-9 activation buffer) was activated by incubation with 0 5 mM p-aminophenylmercuric acetate (APMA) for 3.5 h at 37 °C. The enzyme was dialyzed against the same buffer to remove the APMA.
(§3) Hamiltion Microlab AT Plus: The MMP-Profiling Assay was performed robotically on a Hamilton MicroLab AT Plus®. The Hamilton was programmed to: (1) serially dilute up to 11 potential inhibitors automatically from a 2.5 mM stock in 100% DMSO; (2) distribute substrate followed by inhibitor into a 96 well Cytofluor plate; and (3) add a single enzyme to the plate with mixing to start the reaction. Subsequent plates for each additional enzyme were prepared automatically by beginning the program at the substrate addition point, remixing the diluted inhibitors and beginning the reaction by addition of enzyme. In this way, all MMP assays were done using the same inhibitor dilutions.
(§4) Millipore Cytofluor II. Following incubation, the plate was read on a Cytofluor II fluoromeiric plate reader with excitation at 340 nm and emission at 395 nm with the gain set at 80.
(§5) Microfluorometric Reaction Buffer (MRB): Dilution of test compounds, enzymes, and P218 substrate for the microfluorometric assay were made in microfluorometric reaction buffer consisting of 50 mM 2-(N-morpholino)ethanesulfonic acid (MES) at pH 6.5 with 10 mM CaCl2, 150 mM NaCl. 0.005% Brij-35 and 1% DMSO.
(§6) MMP Microfluorometric Profiling Assay. The assay was done with a final substrate concentration of 6 µM P218 and approximately 0.5 to 0.8 nM MMP with variable drug concentrations. The Hamilton was programmed to serially dilute up to 11 compounds from a 2.5 mM stock (100% DMSO) to 10x the final compounds concentrations in the assay. Initially, the instrument delivered various amounts of microfluorometric reaction buffer (MRB) to a 96 tube rack of 1 mL Marsh dilution tubes. The instrument then picked up 20 µL of inhibitor (2.5 mM) from the sample rack and mixes it with a buffer in row A of the Marsh rack, resulting in a 50 µM drug concentration. The inhibitors were then serially diluted to 10, 5, 1, .2, 0.05 and 0.01 µM. […] The instrument re-mixed and loads 14.5 µL of diluted compound from rows A to G in the Marsh rack to corresponding rows in the microtiter plate. (Row H represents the "background" row and 39.5 µL of MRB was delivered in placed of drug or enzyme). […]

MMP-2 = target: T2, MMP-2 (Homo sapiens, UniProt P08253); assay: biochemical
T2 sequence (P08253 110-660): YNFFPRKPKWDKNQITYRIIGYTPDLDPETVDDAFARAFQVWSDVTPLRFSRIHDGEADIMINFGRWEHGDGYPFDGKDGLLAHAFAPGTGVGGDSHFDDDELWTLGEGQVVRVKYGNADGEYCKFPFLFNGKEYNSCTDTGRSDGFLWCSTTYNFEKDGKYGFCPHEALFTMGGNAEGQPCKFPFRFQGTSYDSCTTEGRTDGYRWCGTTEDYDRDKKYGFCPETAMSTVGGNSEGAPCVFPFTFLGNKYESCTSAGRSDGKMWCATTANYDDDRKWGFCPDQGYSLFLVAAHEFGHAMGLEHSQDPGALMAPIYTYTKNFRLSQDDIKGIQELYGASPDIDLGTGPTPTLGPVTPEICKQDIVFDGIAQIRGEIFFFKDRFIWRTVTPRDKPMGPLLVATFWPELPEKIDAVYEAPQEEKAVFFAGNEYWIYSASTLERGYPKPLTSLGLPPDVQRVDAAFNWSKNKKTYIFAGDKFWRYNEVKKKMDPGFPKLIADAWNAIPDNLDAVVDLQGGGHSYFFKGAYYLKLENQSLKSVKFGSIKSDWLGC

MMP-3 = target: T3, MMP-3 (Homo sapiens, UniProt P08254); type: biochemical; settings: 6 µM P218 substrate, approximately 0.5 to 0.8 nM MMP, 25 min. at 37°C, pH 6.5
T3 construct: made in house; host or cells: CHO cells
T3 sequence (P08254 100-477): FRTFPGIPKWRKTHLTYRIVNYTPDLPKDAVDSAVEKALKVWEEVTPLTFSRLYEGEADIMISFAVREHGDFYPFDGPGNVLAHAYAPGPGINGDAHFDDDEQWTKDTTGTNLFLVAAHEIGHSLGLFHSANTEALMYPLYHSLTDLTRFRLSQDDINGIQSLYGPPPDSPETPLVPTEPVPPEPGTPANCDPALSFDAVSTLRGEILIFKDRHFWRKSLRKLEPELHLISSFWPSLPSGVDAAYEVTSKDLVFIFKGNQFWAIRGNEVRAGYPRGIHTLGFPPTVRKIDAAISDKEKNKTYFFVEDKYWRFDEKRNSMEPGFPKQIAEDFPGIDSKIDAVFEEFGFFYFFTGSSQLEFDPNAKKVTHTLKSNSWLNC
Text: as §1, §2
Recombinant Human CHO Pro-MMP-3: Human CHO pro-stromelysin-257 (pro-MMP-3) was expressed and purified as described by Housley, et al., J. Biol. Chem. 268, 4481, 1993.
Activation of Pro-MMP-3: Pro-MMP-3 at 1.72 µM (100 µg/mL) in 5 mM Tris at pH 7.5, 5 mM CaCl2, 25 mM NaCl, and 0.005% Brij-35 (MMP-3 activation buffer) was activated by incubation with TPCK (N-tosyl-(L)-phenylalanine chioromethyl ketone) trypsin (1:100 w/w to pro-MMP-3) at 25 °C for 30 min. The reaction was stopped by addition of soybean trypsin inhibitor (SBTI; 5:1 w/w to trypsin concentration). This activation protocol results in the formation of 45 kDa active MMP-3, which still contains the C-tenninal portion of the enzyme.
as §3, §4, §5, §6

T1 sequence (P14780 107-707 limits assumed): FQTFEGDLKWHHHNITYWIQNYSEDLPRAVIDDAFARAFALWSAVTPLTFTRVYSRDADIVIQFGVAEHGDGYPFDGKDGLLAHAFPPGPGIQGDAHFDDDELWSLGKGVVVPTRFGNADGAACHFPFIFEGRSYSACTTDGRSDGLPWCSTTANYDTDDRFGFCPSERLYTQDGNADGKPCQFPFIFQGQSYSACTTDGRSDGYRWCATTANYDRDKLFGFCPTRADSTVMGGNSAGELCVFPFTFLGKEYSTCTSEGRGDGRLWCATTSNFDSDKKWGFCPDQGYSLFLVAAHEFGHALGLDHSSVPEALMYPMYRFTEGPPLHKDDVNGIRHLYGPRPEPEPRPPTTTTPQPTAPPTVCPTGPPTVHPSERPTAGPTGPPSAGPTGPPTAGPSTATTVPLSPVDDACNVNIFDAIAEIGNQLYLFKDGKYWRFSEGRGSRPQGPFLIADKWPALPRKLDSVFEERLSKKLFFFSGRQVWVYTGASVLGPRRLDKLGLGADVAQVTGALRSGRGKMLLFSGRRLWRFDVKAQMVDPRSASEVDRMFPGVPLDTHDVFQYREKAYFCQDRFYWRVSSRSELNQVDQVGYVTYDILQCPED

SMILES | IC50 (MMP-9) | IC50 (MMP-2) | IC50 (MMP-3)
CC(C)(C)c1ccc(C(=O)CCCC(CC(=O)c2ccc(-c3ccc(Cl)cc3)cc2)C(=O)O)cc1 (stereo not drawn) [XIII] | 167 nM | 71.6 nM | 222 nM
O=C(CCCCCC(CC(=O)c1ccc(-c2ccc(Cl)cc2)cc1)C(=O)O)c1ccccc1 (stereo not drawn) [IV, 4'-chloro-γ-oxo-α-(6-oxo-6-phenylhexyl)-[1,1'-biphenyl]-4-butanoic acid] | 175 nM | 34.1 nM | 109 nM
CC(C)c1ccc(C(=O)CCCC(CC(=O)c2ccc(-c3ccc(Cl)cc3)cc2)C(=O)O)cc1 (stereo not drawn) [Compound XV, 4'-chloro-α-[4-[4-(1-methylethyl)phenyl]-4-oxobutyl]-γ-oxo-[1,1'-biphenyl]-4-butanoic acid] | 133 nM | 35.7 nM | 130 nM
O=C(CCCC(CC(=O)c1ccc(-c2ccc(Cl)cc2)cc1)C(=O)O)c1ccc(Br)cc1 (stereo not drawn) [IX] | 131 nM | 28.3 nM | 125 nM
CCc1ccc(C(=O)CCCC(CC(=O)c2ccc(-c3ccc(Cl)cc3)cc2)C(=O)O)cc1 (stereo not drawn) [XIV, 4'-chloro-α-[4-(4-ethylphenyl)-4-oxobutyl]-γ-oxo-[1,1'-biphenyl]-4-butanoic acid] | 126 nM | 29.4 nM | 89 nM
O=C(CCCC(CC(=O)c1ccc(-c2ccc(Cl)cc2)cc1)C(=O)O)c1ccc(Oc2ccccc2)cc1 (stereo not drawn) [VII] | 65.7 nM | 131 nM | 367 nM
Cc1cc(C)c(C(=O)CCCC(CC(=O)c2ccc(-c3ccc(Cl)cc3)cc2)C(=O)O)c(C)c1 (stereo not drawn) [VI] | 1310 nM | 30.8 nM | 39.6 nM
O=C(CCCCC(CC(=O)c1ccc(-c2ccc(Cl)cc2)cc1)C(=O)O)c1ccccc1 (stereo not drawn) [III, 4'-chloro-γ-oxo-α-(5-oxo-5-phenylpentyl)-[1,1'-biphenyl]-4-butanoic acid] | 52.4 nM | 7.52 nM | 61.1 nM
O=C(CCC(CC(=O)c1ccc(-c2ccc(Cl)cc2)cc1)C(=O)O)c1ccccc1 (stereo not drawn) [II, 4'-chloro-y-oxo-α-(3-oxo-3-phenylpropyl)-[1,1'-biphenyl]-4-butanoic acid] | 127 nM | 9.6 nM | 96 nM
COc1ccc(C(=O)CCCC(CC(=O)c2ccc(-c3ccc(Cl)cc3)cc2)C(=O)O)c(OC)c1 (stereo not drawn) [XII, 4'-chloro-α-[4-(2,4-dimethoxyphenyl)-4-oxobutyl]-γ-oxo-[1,1'-biphenyl]-4-butanoic acid] | 225 nM | 25.1 nM | 115 nM
COc1ccccc1C(=O)CCCC(CC(=O)c1ccc(-c2ccc(Cl)cc2)cc1)C(=O)O (stereo not drawn) [Compound XVI, 4'-chloro-α-[4-(2-methoxyphenyl)-4-oxobutyl]-γ-oxo-[1,1'-biphenyl]-4-butanoic acid] | 152 nM | 26.2 nM | 48.2 nM
Cc1ccc(C(=O)CCCC(CC(=O)c2ccc(-c3ccc(Cl)cc3)cc2)C(=O)O)cc1C (stereo not drawn) [XI] | 105 nM | 48.3 nM | 104 nM
O=C(CCCC(CC(=O)c1ccc(-c2ccc(Cl)cc2)cc1)C(=O)O)c1ccccc1 (stereo not drawn) [I, 4'-chloro-y-oxo-α-(4-oxo-4-phenylbutyl)-[1,1'-biphenyl]-4-butanoic acid] | 65.7 nM | 9.97 nM | 65 nM
Cc1ccc(C(=O)CCCC(CC(=O)c2ccc(-c3ccc(Cl)cc3)cc2)C(=O)O)cc1 (stereo not drawn) [VIII, 4'-chloro-α-[4-(4-methylphenyl)-4-oxobutyl]-γ-oxo-[1,1'-biphenyl]-4-butanoic acid] | 108 nM | 19 nM | 69.1 nM
COc1ccc(C(=O)CCCC(CC(=O)c2ccc(-c3ccc(Cl)cc3)cc2)C(=O)O)cc1 (stereo not drawn) [Compound X, 4'-chloro-α-[4-(4-methoxyphenyl)-4-oxobutyl]-γ-oxo-[1,1'-biphenyl]-4-butanoic acid] | 145 nM | 25.1 nM | 122 nM
COc1cc(OC)c(C(=O)CCCC(CC(=O)c2ccc(-c3ccc(Cl)cc3)cc2)C(=O)O)c(OC)c1 (stereo not drawn) [V] | 132 nM | 8.13 nM | 71.7 nM
